Source: patent US20240383954A1, “PEPTIDE INHIBITORS OF INTERLEUKIN-23 RECEPTOR AND THEIR USE TO TREAT INFLAMMATORY DISEASES” (Janssen Biotech, Inc., priority 2020, published 2024)
Positions of bridges follow the written chain, without caps; N, C: chain ends. Non-standard residues stand in square brackets, D forms with d. Residues, ends and D or L forms follow the SMILES beside them. *: point of attachment. Trp(7-Me) = Cc1cccc2c(C[C@H](N)C(=O)O)c[nH]c12; 2Nal = N[C@@H](Cc1ccc2ccccc2c1)C(=O)O; AEF = NCCOc1ccc(C[C@H](N)C(=O)O)cc1; αMeY = C[C@](N)(Cc1ccc(O)cc1)C(=O)O; αMeE = C[C@](N)(CCC(=O)O)C(=O)O; Cit = NC(=O)NCCC[C@H](N)C(=O)O; Pen = CC(C)(S)[C@H](N)C(=O)O; αMeK = C[C@](N)(CCCCN)C(=O)O; Ac5c = NC1(C(=O)O)CCCC1; Thp = NC1(C(=O)O)CCOCC1; Pentanoyl = CCCCC(=O)*; Aib = CC(C)(N)C(=O)O

These molecules were tested against IL-23R (Homo sapiens, UniProt Q5VWK5) (assay: cell-based). Conditions: PBMC pSTAT3 IC50 (nM), PBMCs from healthy donors, IL-23 5 ng/mL, 30 minutes, phosphorylated STAT3.
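Also: cryopreserved PBMCs stimulated at 37 °C in 5% CO2, then lysed, with phosphorylated STAT3 quantified in lysates using a phospho-STAT panel kit.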

Sequence of IL-23R (Q5VWK5 24-629): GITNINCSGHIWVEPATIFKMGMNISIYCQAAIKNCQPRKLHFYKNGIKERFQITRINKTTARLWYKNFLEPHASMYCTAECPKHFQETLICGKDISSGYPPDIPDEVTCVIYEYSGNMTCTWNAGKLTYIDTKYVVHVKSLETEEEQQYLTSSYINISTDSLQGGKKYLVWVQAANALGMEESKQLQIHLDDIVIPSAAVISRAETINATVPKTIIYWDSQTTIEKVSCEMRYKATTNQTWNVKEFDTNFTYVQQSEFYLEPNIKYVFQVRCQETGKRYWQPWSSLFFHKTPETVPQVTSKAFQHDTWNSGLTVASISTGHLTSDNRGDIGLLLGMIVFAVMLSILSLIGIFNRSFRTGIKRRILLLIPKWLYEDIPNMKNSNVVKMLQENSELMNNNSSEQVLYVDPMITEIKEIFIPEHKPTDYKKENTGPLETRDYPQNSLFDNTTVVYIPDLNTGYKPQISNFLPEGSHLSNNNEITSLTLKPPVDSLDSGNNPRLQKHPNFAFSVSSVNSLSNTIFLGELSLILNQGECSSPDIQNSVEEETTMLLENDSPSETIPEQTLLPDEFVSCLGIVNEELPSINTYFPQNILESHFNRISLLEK

Row | SMILES | IC50 [nM]
1 | CC(=O)NCCCC[C@H](NC(=O)C1(NC(=O)[C@H](Cc2ccc3ccccc3c2)NC(=O)[C@H](Cc2ccc(OCCN)cc2)NC(=O)[C@H]2NC(=O)[C@H](CCC(N)=O)NC(=O)[C@H](Cc3c[nH]c4ccccc34)NC(=O)[C@H]([C@@H](C)O)NC(=O)[C@H](CCC(N)=O)NC(=O)[C@@H](NC(=O)[C@@H](CCCNC(=N)N)NC(C)=O)C(C)(C)SSC2(C)C)CCOCC1)C(=O)N[C@@H](CC(N)=O)C(=O)NC1(C(N)=O)CCOCC1 [Compound 56, Ac-[(D)Arg]-[Pen]-Q-T-W-Q-[Pen]-Phe[4-(2-aminoethoxy)]-[2-Nal]-[THP]-[Lys(Ac)]-N-[THP]-NH2] | 4.9
2 | CC(=O)N[C@H](CCCNC(=N)N)C(=O)N[C@H]1CCSC[C@@H](C(=O)N[C@@H](Cc2ccc(OCCN)cc2)C(=O)N[C@@H](Cc2ccc3ccccc3c2)C(=O)NC2(C(=O)N[C@@](C)(CCC(=O)O)C(=O)N[C@@H](CC(N)=O)C(=O)NC3(C(N)=O)CCOCC3)CCOCC2)NC(=O)[C@H](CCC(N)=O)NC(=O)[C@H](Cc2c[nH]c3ccccc23)NC(=O)[C@H]([C@@H](C)O)NC(=O)[C@H](CCC(N)=O)NC1=O [Compound 37, Ac-[(D)Arg]-[Abu]-Q-T-W-Q-[Cys]-Phe[4-(2-aminoethoxy)]-[2-Nal]-[THP]-[aMeGlu]-N-[THP]-NH2] | 11
3 | CC(=O)N[C@H](CCCNC(=N)N)C(=O)N[C@H]1CCSC[C@@H](C(=O)N[C@@H](Cc2ccc(OCCN)cc2)C(=O)N[C@@H](Cc2ccc3ccccc3c2)C(=O)NC2(C(=O)N[C@@H](CCC(=O)O)C(=O)N[C@@H](CC(N)=O)C(=O)N[C@@](C)(Cc3ccccc3)C(N)=O)CCOCC2)NC(=O)[C@H](CCC(N)=O)NC(=O)[C@H](Cc2c[nH]c3ccccc23)NC(=O)[C@H]([C@@H](C)O)NC(=O)[C@H](CCC(N)=O)NC1=O [Compound 123, Ac-[(D)Arg]-[Abu]-Q-T-W-Q-[Cys]-Phe[4-(2-aminoethoxy)]-[2-Nal]-[THP]-E-N-[a-MePhe]-NH2] | 11
4 | CCCCC(=O)N[C@H](CCCNC(=N)N)C(=O)N[C@@H]1C(=O)N[C@@H](CCC(N)=O)C(=O)N[C@@H]([C@@H](C)O)C(=O)N[C@@H](Cc2c[nH]c3ccccc23)C(=O)N[C@@H](CCC(N)=O)C(=O)N[C@H](C(=O)N[C@@H](Cc2ccc(OCCN)cc2)C(=O)N[C@@H](Cc2ccc3ccccc3c2)C(=O)NC2(C(=O)N[C@@H](CCC(=O)O)C(=O)N[C@@H](CC(N)=O)C(=O)NC3(C(N)=O)CCOCC3)CCOCC2)C(C)(C)SSC1(C)C [Compound 9, [Pentanoic acid]-[(D)Arg]-[Pen]-Q-T-W-Q-[Pen]-Phe[4-(2-aminoethoxy)]-[2-Nal]-[THP]-E-N-[THP]-NH2] (Pentanoyl-[dR][Pen]QTWQ[Pen][AEF][2Nal][Thp]EN[Thp]-NH2; disulfide 2-7) | 29
5 | CC(=O)N[C@H](CCCNC(=N)N)C(=O)N[C@@H]1C(=O)N[C@@H](CC(N)=O)C(=O)N[C@@H]([C@@H](C)O)C(=O)N[C@@H](Cc2c[nH]c3c(C)cccc23)C(=O)N[C@@H](CCC(N)=O)C(=O)N[C@H](C(=O)N[C@@H](Cc2ccc(OCCN)cc2)C(=O)N[C@@H](Cc2ccc3ccccc3c2)C(=O)NC2(C(=O)N[C@@H](CCC(=O)O)C(=O)N[C@@H](CC(N)=O)C(=O)NC3(C(N)=O)CCOCC3)CCCC2)C(C)(C)SSC1(C)C [Compound 99, Ac-[(D)Arg]-[Pen]-N-T-[W(7-Me)]-Q-[Pen]-Phe[4-(2-aminoethoxy)]-[2-Nal]-[Acvc]-E-N-[THP]-NH2] (Ac-[dR][Pen]NT[Trp(7-Me)]Q[Pen][AEF][2Nal][Ac5c]EN[Thp]-NH2; disulfide 2-7) | 4.2
6 | CCC(=O)N[C@H](CCCNC(=N)N)C(=O)N[C@@H]1C(=O)N[C@@H](CCC(N)=O)C(=O)N[C@@H]([C@@H](C)O)C(=O)N[C@@H](Cc2c[nH]c3ccccc23)C(=O)N[C@@H](CCC(N)=O)C(=O)N[C@H](C(=O)N[C@@H](Cc2ccc(OCCN)cc2)C(=O)N[C@@H](Cc2ccc3ccccc3c2)C(=O)NC2(C(=O)N[C@@H](CCCCNC(=O)C(C)(C)C)C(=O)N[C@@H](CC(N)=O)C(=O)NC3(C(N)=O)CCOCC3)CCOCC2)C(C)(C)SSC1(C)C [Compound 7, [Propionic_acid]-[(D)Arg]-[Pen]-Q-T-W-Q-[Pen]-Phe[4-(2-aminoethoxy)]-[2-Nal]-[THP]-[Lys(COtBu)]-N-[THP]-NH2] | 8.6
7 | COc1ccc(C[C@H](NC(=O)[C@@H]2CSCC[C@H](NC(=O)[C@@H](CCCNC(=N)N)NC(=O)Cn3cc(CCCF)nn3)C(=O)N[C@@H](CCC(N)=O)C(=O)N[C@@H]([C@@H](C)O)C(=O)N[C@@H](Cc3c[nH]c4ccccc34)C(=O)N[C@@H](CCC(N)=O)C(=O)N2)C(=O)N[C@@H](Cc2ccc3ccccc3c2)C(=O)NC2(C(=O)N[C@@H](CCC(=O)O)C(=O)N[C@@H](CC(N)=O)C(=O)NC3(C(N)=O)CCOCC3)CCOCC2)cc1 [Compound 25, FPrpTriazoleMe_Acid-[(D)Arg]-[Abu]-Q-T-W-Q-[Cys]-[Phe(4-OMe)]-[2-Nal]-[THP]-E-N-[THP]-NH2] | 21
8 | CC(=O)NCCCC[C@@H]1NC(=O)[C@H](Cc2c[nH]c3c(C)cccc23)NC(=O)[C@H]([C@@H](C)O)NC(=O)[C@H](CC(N)=O)NC(=O)[C@@H](N)C(C)(C)SSC(C)(C)[C@@H](C(=O)N[C@@H](Cc2ccc(OCCNC(=O)OC(C)(C)C)cc2)C(=O)N[C@@H](Cc2ccc3ccccc3c2)C(=O)N[C@@](C)(CCCCNC(=O)OC(C)(C)C)C(=O)N[C@@H](CCCCNC(C)=O)C(=O)N[C@@H](CC(N)=O)C(=O)N[C@@](C)(Cc2ccccc2)C(N)=O)NC1=O [Compound 304, NH2--Pen-N-T-7MeW-K(Ac)-Pen-AEF(Boc)-2Nal-aMeK(Boc)-K(Ac)-N-aMePhe-CONH2] | 28
9 | CC(=O)NCCCC[C@H](NC(=O)[C@](C)(CCCCN)NC(=O)[C@H](Cc1ccc2ccccc2c1)NC(=O)[C@H](Cc1ccc(OCCN)cc1)NC(=O)[C@H]1NC(=O)[C@H](CCCCNC(=O)C(F)(F)F)NC(=O)[C@H](Cc2c[nH]c3ccccc23)NC(=O)[C@H]([C@@H](C)O)NC(=O)[C@H](CC(N)=O)NC(=O)[C@@H](NC(C)=O)C(C)(C)SSC1(C)C)C(=O)N[C@@H](CC(N)=O)C(=O)NC1(C(N)=O)CCOCC1 [Compound 103, Ac-[Pen]-N-T-W-[Lys(COCF3)]-[Pen]-Phe[4-(2-aminoethoxy)]-[2-Nal]-[a-MeLys]-[Lys(Ac)]-N-[THP]-NH2] | 57
10 | CC(=O)NCCCC[C@@H]1NC(=O)[C@H](Cc2c[nH]c3ccccc23)NC(=O)[C@H]([C@@H](C)O)NC(=O)[C@H](CC(N)=O)NC(=O)[C@@H](NC(C)=O)C(C)(C)SSC(C)(C)[C@@H](C(=O)N[C@@H](Cc2ccc(OCCN)cc2)C(=O)N[C@@H](Cc2ccc3ccccc3c2)C(=O)N[C@@](C)(CCCCN)C(=O)N[C@@H](CCCCNC(C)=O)C(=O)N[C@@H](CC(N)=O)C(=O)NC2(C(N)=O)CCOCC2)NC1=O [Compound 95, Ac-[Pen]-N-T-W-[Lys(Ac)]-[Pen]-Phe[4-(2-aminoethoxy)]-[2-Nal]-[a-MeLys]-[Lys(Ac)]-N-[THP]-NH2] | 22
11 | CC(=O)NCCCC[C@@H]1NC(=O)[C@H](Cc2c[nH]c3c(C)cccc23)NC(=O)[C@H]([C@@H](C)O)NC(=O)[C@H](CC(N)=O)NC(=O)[C@@H](NC(=O)[C@@H](CCCNC(=N)N)NC(C)=O)C(C)(C)SSC(C)(C)[C@@H](C(=O)N[C@@H](Cc2ccc(OCCN)cc2)C(=O)N[C@@H](Cc2ccc3ccccc3c2)C(=O)NC2(C(=O)N[C@@](C)(CCC(=O)O)C(=O)N[C@@H](CC(N)=O)C(=O)N[C@@](C)(Cc3ccc(O)cc3)C(N)=O)CCOCC2)NC1=O [Compound 150, Ac-[(D)Arg]-[Pen]-N-T-[W(7-Me)]-[Lys(Ac)]-[Pen]-Phe[4-(2-aminoethoxy)]-[2-Nal]-[THP]-[aMeGlu]-N-[aMeTyr]-NH2] (Ac-[dR][Pen]NT[Trp(7-Me)]K(Ac)[Pen][AEF][2Nal][Thp][αMeE]N[αMeY]-NH2; disulfide 2-7) | 4.7
12 | CC(=O)N[C@H](CCCNC(=N)N)C(=O)N[C@@H]1C(=O)N[C@@H](CCC(N)=O)C(=O)N[C@@H]([C@@H](C)O)C(=O)N[C@@H](Cc2c[nH]c3ccccc23)C(=O)N[C@@H](CCC(N)=O)C(=O)N[C@H](C(=O)N[C@@H](Cc2ccc(OCCN)cc2)C(=O)N[C@@H](Cc2ccc3ccccc3c2)C(=O)NC2(C(=O)N[C@@H](CCCCNC(=O)C3CC3)C(=O)N[C@@H](CC(N)=O)C(=O)NC3(C(N)=O)CCOCC3)CCOCC2)C(C)(C)SSC1(C)C [Compound 51, Ac-[(D)Arg]-[Pen]-Q-T-W-Q-[Pen]-Phe[4-(2-aminoethoxy)]-[2-Nal]-[THP]-[Lys(COcPr)]-N-[THP]-NH2] | 27
13 | CC(=O)NCCCC[C@@H]1NC(=O)[C@H](Cc2c[nH]c3ccccc23)NC(=O)[C@H]([C@@H](C)O)NC(=O)[C@H](CC(N)=O)NC(=O)[C@@H](NC(C)=O)CSSC[C@@](C)(C(=O)N[C@@H](Cc2ccc(OCCN)cc2)C(=O)N[C@@H](Cc2ccc3ccccc3c2)C(=O)N[C@@](C)(CCCCN)C(=O)N[C@@H](CCCCNC(C)=O)C(=O)N[C@@H](CC(N)=O)C(=O)N[C@@](C)(Cc2ccccc2)C(N)=O)NC1=O [Compound 122, Ac-[Cys]-N-T-W-[Lys(Ac)]-[aMeCys]-Phe[4-(2-aminoethoxy)]-[2-Nal]-[a-MeLys]-[Lys(Ac)]-N-[a-MePhe]-NH2] | 54
14 | C[C@@H](O)[C@@H]1NC(=O)[C@H](CCC(N)=O)NC(=O)[C@@H](NC(=O)[C@H](N)CCCNC(=N)N)CCSC[C@@H](C(=O)N[C@@H](Cc2ccc(OCCNC(=O)OC(C)(C)C)cc2)C(=O)N[C@@H](Cc2ccc3ccccc3c2)C(=O)NC2(C(=O)N[C@@H](CCC(=O)O)C(=O)N[C@@H](CC(N)=O)C(=O)NC3(C(N)=O)CCOCC3)CCOCC2)NC(=O)[C@H](CCC(N)=O)NC(=O)[C@H](Cc2c[nH]c3ccccc23)NC1=O [Compound 47, [(D)Arg]-[Abu]-Q-T-W-Q-[Cys]-Phe[4-(2-(Boc)aminoethoxy)]-[2-Nal]-[THP]-E-N-[THP]-NH2] | 5.3
15 | CC(=O)NCCCC[C@H](NC(=O)[C@](C)(CCCCN)NC(=O)[C@H](Cc1ccc2ccccc2c1)NC(=O)[C@H](Cc1ccc(OCCN)cc1)NC(=O)[C@H]1NC(=O)[C@H](CCCNC(N)=O)NC(=O)[C@H](Cc2c[nH]c3c(C)cccc23)NC(=O)[C@H]([C@@H](C)O)NC(=O)[C@H](CC(N)=O)NC(=O)[C@@H](NC(C)=O)C(C)(C)SSC1(C)C)C(=O)N[C@@H](CC(N)=O)C(=O)NC(C)(C)C(N)=O [Compound 302, MeCO-Pen-N-T-7MeW-Cit-Pen-AEF-2Nal-aMeK-K(Ac)-N-Aib-CONH2] (Ac-[Pen]NT[Trp(7-Me)][Cit][Pen][AEF][2Nal][αMeK]K(Ac)N[Aib]-NH2; disulfide 1-6) | 7
